Source: patent US9936700B2, “Substituted quinoxaline derivatives as pest control agent” (BAYER CROPSCIENCE AKTIENGESELLSCHAFT, priority 2013, dated 2018)
Like-named read-outs stand apart in the source and are kept apart here.

Key:
[1] = log P by reversed-phase HPLC (EEC Directive 79/831 Annex V.A8); type: physicochemical; conditions: for chromatographic logP: reversed-phase C18 HPLC column
Text: NMR data and log P values: log P (HCOOH)=log P[a] log P (neutral)=log P[b]
^[a] […] Called log P (HCOOH) in the table.
^[b] […] Called log P (neutral) in the table.

Tetranychus urticae = Tetranychus urticae spray test, OP-resistant (TETRUR); type: in vivo; conditions: 500 g/ha, bean leaf discs, after 6 days
Experimental: Tetranychus urticae—spray test, OP-resistant (TETRUR)
• Solvent: 78.0 parts by weight of acetone • 1.5 parts by weight of dimethylformamide • Emulsifier: 0.5 part by weight of alkylaryl polyglycol ether
After 6 days, the efficacy in % is determined. 100% means that all the spider mites have been killed; 0% means that no spider mites have been killed.

Myzus persicae = Myzus persicae spray test (MYZUPE); type: in vivo; conditions: Chinese cabbage leaf discs, after 6 days
Experimental: Myzus persicae—spray test (MYZUPE)
• Solvent: 78 parts by weight of acetone • 1.5 parts by weight of dimethylformamide • Emulsifier: 0.5 part by weight of alkylaryl polyglycol ether
After 6 days, the efficacy in % is determined. 100% means that all the aphids have been killed; 0% means that no aphids have been killed.

Aphis gossypii = Aphis gossypii spray test; type: in vivo; conditions: cotton plants, after 6 days
Experimental: Aphis gossypii—spray test
• Solvent: 7 parts by weight of dimethylformamide • Emulsifier: alkylaryl polyglycol ether
To produce further test concentrations, the preparation is diluted with emulsifier-containing water. If the addition of ammonium salts or/and penetrants is required, these are each added in a concentration of 1000 ppm to the formulation solution.
After 6 days, the kill in % is determined. 100% means that all the aphids have been killed; 0% means that no aphids have been killed.

[2] = neutral range, pH 7.8, aqueous ammonium hydrogencarbonate/acetonitrile, read-out: logP [b] = log P (neutral)
[3] = acidic range, pH 2.7, 0.1% aqueous formic acid/acetonitrile
[4] = acidic range, pH 2.7, 0.1% aqueous formic acid/acetonitrile, read-out: logP [a] = log P (HCOOH)
[5] = neutral range, pH 7.8, aqueous ammonium hydrogencarbonate/acetonitrile

Compound: FC(F)(F)c1ccccc1-c1cnc2cc(Cl)ccc2n1 [Example I-21]
- logP [a] = log P (HCOOH) ([1]; pH 2.7): 4.17
- efficacy (spider mites killed) (Tetranychus urticae): 100%

Compound: CCSc1ccccc1-c1cnc2cc(C#N)ccc2n1 [Example I-57]
- logP [a] = log P (HCOOH) ([1]; pH 2.7): 3.60
- logP [b] = log P (neutral) ([1]; pH 7.8): 3.55

Compound: CSc1ccccc1-c1cnc2cc(Cl)ccc2n1 [Example I-22]
- logP [a] = log P (HCOOH) ([1]; pH 2.7): 4.08
- efficacy (aphids killed) (Myzus persicae; 500 g/ha): 90%

Compound: CSc1ccccc1-c1cnc2cc(C(F)(F)F)ccc2n1 [Example I-16]
- logP [a] = log P (HCOOH) ([1]; pH 2.7): 4.45
- logP [b] = log P (neutral) ([1]; pH 7.8): 4.31

Compound: CCSc1ccccc1-c1cnc2cc(Cl)ccc2n1 [Example I-23]
- logP [a] = log P (HCOOH) ([1]; pH 2.7): 4.56

Compound: O=c1cnc2ccc(C(F)(F)F)cc2[nH]1 [VIa-02, 7-(trifluoromethyl)quinoxalin-2(1H)-one]
- chromatographic logP [1, 2]: 1.65

Compound: Cc1cnccc1-c1cnc2ccc(S(C)(=O)=O)cc2n1 [Example I-13]
- logP [a] = log P (HCOOH) ([1]; pH 2.7): 0.72
- logP [b] = log P (neutral) ([1]; pH 7.8): 1.34

Compound: Cc1cnccc1-c1nc2cc(C(F)(F)F)ccc2nc1-c1ccc(Cl)cc1 [Example I-68]
- logP [a] = log P (HCOOH) [1, 3]: 3.94

Compound: CCSc1ccccc1-c1nc2cc3c(cc2nc1-c1ccc(Cl)cc1)OC(F)(F)O3 [Example I-59]
- logP [a] = log P (HCOOH) [1, 3]: 6.23

Compound: Cc1cnccc1-c1cnc2cc(F)c(F)cc2n1 [Example I-63]
- logP [a] = log P (HCOOH) ([1]; pH 2.7): 1.55
- efficacy (aphids killed) (Myzus persicae; 500 g/ha): 90%

Compound: Cc1cnccc1-c1cnc2cc(C#N)ccc2n1 [Example I-56]
- logP [a] = log P (HCOOH) ([1]; pH 2.7): 1.17
- logP [b] = log P (neutral) ([1]; pH 7.8): 1.81

Compound: FC1(F)Oc2cc3ncc(-c4ccncc4Cl)nc3cc2O1 [Example I-72]
- logP [a] = log P (HCOOH) ([1]; pH 2.7): 3.24

Compound: Cc1cnccc1-c1nc2cc3c(cc2nc1C)OC(F)(F)O3 [Example I-67]
- logP [a] = log P (HCOOH) ([1]; pH 2.7): 2.02

Compound: CC[S+]([O-])c1ccccc1-c1cnc2cc(Cl)ccc2n1 (stereo not drawn) [Example I-31]
- logP [a] = log P (HCOOH) ([1]; pH 2.7): 2.66
- logP [b] = log P (neutral) ([1]; pH 7.8): 2.65
- efficacy (aphids killed) (Myzus persicae; 500 g/ha): 90%

Compound: CCSc1ccccc1-c1nc2ccc(C(F)(F)F)cc2nc1Cl [Example I-3, 3-Chloro-2-[2-(ethylsulfanyl)phenyl]-6-(trifluoromethyl)quinoxaline]
- chromatographic logP [1, 4]: 5.2

Compound: Clc1ccc2nc(-c3cncnc3)cnc2c1 [Example I-19]
- logP [a] = log P (HCOOH) ([1]; pH 2.7): 2.01

Compound: Cc1nc2cc(C(F)(F)F)ccc2nc1-c1cccnc1 [Example I-60]
- logP [a] = log P (HCOOH) [1, 3]: 2.39

Compound: [O-][n+]1cc(-c2ccc(C(F)(F)F)cc2)nc2cc3c(cc21)OC(F)(F)O3 [Example I-6, 2,2-Difluoro-7-[4-(trifluoromethyl)phenyl][1,3]dioxolo [4,5-g]quinoxaline 5-oxide]
- chromatographic logP [1, 4]: 4.12

Compound: Cc1ccccc1-c1cnc2ccc(C(F)(F)F)cc2n1 [Example I-47]
- logP [a] = log P (HCOOH) [1, 3]: 4.47
- logP [b] = log P (neutral) [1, 5]: 4.41

Compound: FC1(F)Oc2cc3ncc(-c4ccc(C(F)(F)F)cc4)nc3cc2O1 [Example I-5, 2,2-Difluoro-6-[4-(trifluoromethyl)phenyl][1,3]dioxolo [4,5-g]quinoxaline]
- chromatographic logP [1, 4]: 5.02

Compound: CCOc1ncccc1-c1cnc2cc(C(F)(F)F)ccc2n1 [Example I-24]
- logP [a] = log P (HCOOH) ([1]; pH 2.7): 4.59
- efficacy (spider mites killed) (Tetranychus urticae): 100%

Compound: COc1cnccc1-c1cnc2ccc(C(F)(F)F)cc2n1 [Example I-62]
- efficacy (kill of aphids) (Aphis gossypii; 100 ppm): 97%
- logP [a] = log P (HCOOH) ([1]; pH 2.7): 2.60
- efficacy (aphids killed) (Myzus persicae; 100 g/ha): 90%

Compound: Cc1cnccc1-c1nc2ccc(C(F)(F)F)cc2nc1C [Example I-66]
- efficacy (kill of aphids) (Aphis gossypii; 100 ppm): 95%
- logP [a] = log P (HCOOH) [1, 3]: 2.15
- efficacy (aphids killed) (Myzus persicae; 500 g/ha): 90%
- efficacy (spider mites killed) (Tetranychus urticae): 90%

Compound: Cc1cnccc1-c1nc2cc(C(F)(F)F)ccc2nc1Cl [Example I-38]
- logP [a] = log P (HCOOH) ([1]; pH 2.7): 2.88

Compound: Cc1ccsc1-c1cnc2ccc(C(F)(F)F)cc2n1 [Example I-43]
- logP [a] = log P (HCOOH) ([1]; pH 2.7): 4.65
- logP [b] = log P (neutral) ([1]; pH 7.8): 4.66
- efficacy (spider mites killed) (Tetranychus urticae): 90%

Compound: FC(F)(F)c1ccc2nc(-c3cncnc3)cnc2c1 [Example I-12]
- logP [a] = log P (HCOOH) ([1]; pH 2.7): 2.33
- efficacy (spider mites killed) (Tetranychus urticae): 90%

Compound: Clc1ccc2nc(-c3ccncc3Cl)cnc2c1 [Example I-39]
- logP [a] = log P (HCOOH) ([1]; pH 2.7): 2.99

Compound: Cc1ccsc1-c1cnc2cc(C(F)(F)F)ccc2n1 [Example I-48]
- logP [a] = log P (HCOOH) ([1]; pH 2.7): 4.67
- efficacy (spider mites killed) (Tetranychus urticae): 90%

Compound: Cc1cscc1-c1cnc2ccc(C(F)(F)F)cc2n1 [Example I-44]
- logP [a] = log P (HCOOH) ([1]; pH 2.7): 4.57

Compound: Cc1cnccc1-c1nc2ccc(C(F)(F)F)cc2nc1-c1ccc(Cl)cc1 [Example I-64]
- logP [a] = log P (HCOOH) [1, 3]: 4.03

Compound: Cn1nccc1-c1cnc2ccc(C(F)(F)F)cc2n1 [Example I-50]
- logP [a] = log P (HCOOH) [1, 3]: 3.02
- logP [b] = log P (neutral) [1, 5]: 3.00

Compound: CCc1cnccc1-c1cnc2ccc(C(F)(F)F)cc2n1 [Example I-27]
- efficacy (spider mites killed) (Tetranychus urticae): 90%

Compound: CCSc1ccccc1-c1cnc2ccc(S(C)(=O)=O)cc2n1 [Example I-35]
- logP [a] = log P (HCOOH) ([1]; pH 2.7): 2.85
- logP [b] = log P (neutral) ([1]; pH 7.8): 2.78

Compound: N#Cc1ccc2nc(-c3ccncc3)cnc2c1 [Example I-61]
- logP [a] = log P (HCOOH) [1, 3]: 1.19

Compound: Cc1cnccc1-c1cnc2cc(Cl)ccc2n1 [Example I-17]
- logP [a] = log P (HCOOH) ([1]; pH 2.7): 1.69
- logP [b] = log P (neutral) ([1]; pH 7.8): 2.58

Compound: CS(=O)(=O)c1ccccc1-c1cnc2cc(Cl)ccc2n1 [Example I-28]
- logP [a] = log P (HCOOH) ([1]; pH 2.7): 2.52
- logP [b] = log P (neutral) ([1]; pH 7.8): 2.52

Compound: CCSc1ccccc1-c1cnc2cc(Cl)c(Cl)cc2n1 [Example I-42]
- logP [a] = log P (HCOOH) ([1]; pH 2.7): 5.38
- logP [b] = log P (neutral) ([1]; pH 7.8): 5.48

Compound: Cc1cnccc1-c1cnc2cc(Cl)c(Cl)cc2n1 [Example I-41]
- logP [a] = log P (HCOOH) ([1]; pH 2.7): 2.51
- logP [b] = log P (neutral) ([1]; pH 7.8): 3.29

Compound: Cc1cnccc1-c1nc2ccc(C(F)(F)F)cc2nc1Cl [Example I-37]
- logP [a] = log P (HCOOH) ([1]; pH 2.7): 2.94

Compound: Cc1cccnc1-c1cnc2cc(C(F)(F)F)ccc2n1 [Example I-52]
- logP [a] = log P (HCOOH) ([1]; pH 2.7): 3.69

Compound: O=c1[nH]c2cc3c(cc2nc1-c1ccc(Cl)cc1)OC(F)(F)O3 [VIb-01, 7-(4-chlorophenyl)-2,2-difluoro [1,3]dioxolo [4,5-g]quinoxalin-6(5H)-one]
- chromatographic logP [1, 4]: 2.96

Compound: Cn1nccc1-c1cnc2cc(C(F)(F)F)ccc2n1 [Example I-49]
- logP [a] = log P (HCOOH) [1, 3]: 3.07
- logP [b] = log P (neutral) [1, 5]: 3.05

Compound: FC(F)(F)c1ccc2nc(Cl)c(-c3ccc(Cl)cc3)nc2c1 [Example I-53]
- logP [a] = log P (HCOOH) [1, 3]: 5.31

Compound: FC(F)(F)c1ccc2nc(-c3ccncc3)c(-c3ccncc3)nc2c1 [Example I-58]
- logP [a] = log P (HCOOH) [1, 3]: 2.06

Compound: FC(F)(F)c1ccc2nc(-c3ccc(Cl)cc3)cnc2c1 [Example I-25]
- logP [a] = log P (HCOOH) [1, 3]: 4.99
- efficacy (spider mites killed) (Tetranychus urticae): 90%

Compound: Cc1ccc(-c2cnc3ccc(C(F)(F)F)cc3n2)c(F)c1 [Example I-51]
- logP [a] = log P (HCOOH) ([1]; pH 2.7): 4.97
- efficacy (spider mites killed) (Tetranychus urticae): 100%

Compound: FC(F)(F)c1ccc2nc(-c3ccncc3Cl)cnc2c1 [Example I-10]
- efficacy (kill of aphids) (Aphis gossypii; 20 ppm): 85%
- logP [a] = log P (HCOOH) ([1]; pH 2.7): 3.27
- efficacy (aphids killed) (Myzus persicae; 100 g/ha): 100%

Compound: Cc1cscc1-c1cnc2cc(C(F)(F)F)ccc2n1 [Example I-45]
- logP [a] = log P (HCOOH) ([1]; pH 2.7): 4.57

Compound: Cc1ccc(-c2c[n+]([O-])c3ccc(C(F)(F)F)cc3n2)c(F)c1 [Example I-54]
- logP [a] = log P (HCOOH) ([1]; pH 2.7): 4.04
- logP [b] = log P (neutral) ([1]; pH 7.8): 4.00

Compound: O=c1cnc2cc(C(F)(F)F)ccc2[nH]1 [VIa-01, 6-(trifluoromethyl)quinoxalin-2(1H)-one]
- chromatographic logP [1, 2]: 1.71

Compound: Clc1ccc2nc(-c3ccnc(Cl)c3)cnc2c1 [Example I-69]
- logP [a] = log P (HCOOH) [1, 3]: 3.52

Compound: Fc1cc2ncc(-c3ccncc3Cl)nc2cc1F [Example I-70]
- logP [a] = log P (HCOOH) ([1]; pH 2.7): 2.72

Compound: Cc1ccccc1-c1cnc2cc(C(F)(F)F)ccc2n1 [Example I-46]
- logP [a] = log P (HCOOH) [1, 3]: 4.48
- efficacy (spider mites killed) (Tetranychus urticae): 90%

Compound: FC(F)(F)c1ccc2nc(-c3ccccn3)cnc2c1 [Example I-18]
- logP [a] = log P (HCOOH) [1, 3]: 3.72
- logP [b] = log P (neutral) [1, 5]: 3.75
- efficacy (aphids killed) (Myzus persicae; 500 g/ha): 90%
- efficacy (spider mites killed) (Tetranychus urticae): 90%

Compound: Clc1cc2ncc(-c3ccncc3Cl)nc2cc1Cl [Example I-71]
- logP [a] = log P (HCOOH) ([1]; pH 2.7): 3.78

Compound: O=c1cnc2cc3c(cc2[nH]1)OC(F)(F)O3 [VIa-03, 2,2-difluoro[1,3]dioxolo[4,5-g]quinoxalin-6(5H)-one]
- chromatographic logP [1, 4]: 1.49
- chromatographic logP [1, 2]: 1.33

Compound: Cc1cnccc1-c1nc2cc(F)c(F)cc2nc1C [Example I-65]
- logP [a] = log P (HCOOH) ([1]; pH 2.7): 1.58

Compound: Cc1c[n+]([O-])ccc1-c1c[n+]([O-])c2cc(C(F)(F)F)ccc2n1 [Example I-55]
- logP [a] = log P (HCOOH) [1, 3]: 1.59

Compound: Clc1cc2ncc(-c3ccncc3)nc2cc1Cl [Example I-73]
- logP [a] = log P (HCOOH) [1, 3]: 2.53
